The values that follow come from patent US12692249B2, “WDR5 inhibitors and modulators” (Vanderbilt University, priority 2019, dated 2026).

The structures appear in SMILES notation. Where two headings read alike, the source gives them in different places. Bounds are passed on as bounds.

The subject of assay [1] is MV4:11 human cancer cell lines. The experiment in a line: Cellular viability / anti-proliferative assay, CellTiter-Glo, 5 day protocol. To be noted: read-out: GI50 on cellular proliferation of MV4:11 human cancer cell lines. In kind it is cell-based. The method in brief: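 MV-4-11 cells in IMDM with 10% FBS, 200 cells/well, exposed 5 days to 22 two-fold dilutions from 30 μM, final DMSO 0.3%. Viability read by CellTiter-Glo luminescence; GI50 from sigmoidal dose-response fit, mean of at least two replicates.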

Assay [2] deals with WDR5 (Homo sapiens, UniProt P61964). As to the kind of experiment: TR-FRET competition binding assay, displacement of 10mer-Thr-FAM MLL peptide probe from His-tagged WDR5. To be noted: WDR5-His tag (residues 24-334) 2 nM; 10mer-Thr-FAM 150 nM; 60 min, room temperature; read-out: Ki for Inhibition of WDR5 by TR-FRET assay.
Setting [3] is: Homo sapiens, MV4-11, 120 h, MV4:11 cells, 5 day incubation, CellTiter-Glo, mean of at least two replicates.

A word on the Ki: it is a dissociation constant, usually derived from enzyme kinetics or from competition with a known ligand. Take `COc1cc(CN2CCN(C3CCOCC3)CC2)c2nccc(N3CCc4c(cc(Cn5ccnc5)cc4-c4cn(C)nc4C(F)(F)F)C3=O)c2c1` [Example 143, 7-((1H-Imidazol-1-yl)methyl)-2-(6-methoxy-8-((4-(tetrahydro-2H-pyran-4-yl)piperazin-1-yl)methyl)quinolin-4-yl)-5-(1-methyl-3-(trifluoromethyl)-1H-pyrazol-4-yl)-3,4-dihydroisoquinolin-1(2H)-one]: the GI50 in assay [1] (setting [3]) is below 20 nM. Moreover, the inhibition constant (Ki) in assay [2] worked out at 0.038 nM.

For the compound `COCCN1CCN(Cc2cc(OC)cc3c(N4CCc5c(cc(Cn6ccnc6)cc5-c5cn(C)nc5C(F)(F)F)C4=O)ccnc23)CC1` [Example 144, 7-((1H-Imidazol-1-yl)methyl)-2-(6-methoxy-8-((4-(2-methoxyethyl)piperazin-1-yl)methyl)quinolin-4-yl)-5-(1-methyl-3-(trifluoromethyl)-1H-pyrazol-4-yl)-3,4-dihydroisoquinolin-1(2H)-one], the GI50 in assay [1] (setting [3]) was below 20 nM. The Ki in assay [2] worked out at 0.047 nM.

For `CCc1cc(OC)cc2c(N3CCc4c(cc(Cn5ccnc5)cc4-c4cn(C)nc4C(F)(F)F)C3=O)ccnc12` [Example 149, 7-((1H-Imidazol-1-yl)methyl)-2-(8-ethyl-6-methoxyquinolin-4-yl)-5-(1-methyl-3-(trifluoromethyl)-1H-pyrazol-4-yl)-3,4-dihydroisoquinolin-1(2H)-one], the GI50 in assay [1] (setting [3]) came to 75 nM. In addition, the Ki in assay [2] amounted to 0.035 nM.

For the compound `COCc1cc(OC)cc2c(N3CCc4c(cc(Cn5ccnc5)cc4-c4cn(C)nc4C(F)(F)F)C3=O)ccnc12` [Example 150, 7-((1H-Imidazol-1-yl)methyl)-2-(6-methoxy-8-(methoxymethyl)quinolin-4-yl)-5-(1-methyl-3-(trifluoromethyl)-1H-pyrazol-4-yl)-3,4-dihydroisoquinolin-1(2H)-one], in assay [1] (MV4:11 cells, 5 day incubation, CellTiter-Glo, mean of at least two replicates), the GI50 stood at 27 nM. Also, the Ki in assay [2] was determined as 0.025 nM.

Turning to `COc1cc(C2=CCOCC2)c2nc(C)cc(N3CCc4c(cc(Cn5ccnc5)cc4-c4cn(C)nc4C(F)(F)F)C3=O)c2c1` [Example 151, 7-((1H-imidazol-1-yl)methyl)-2-(8-(3,6-dihydro-2H-pyran-4-yl)-6-methoxy-2-methylquinolin-4-yl)-5-(1-methyl-3-(trifluoromethyl)-1H-pyrazol-4-yl)-3,4-dihydroisoquinolin-1(2H)-one], the GI50 in assay [1] (setting [3]) was found to be 55 nM. Besides, in assay [2], the inhibitory constant (Ki) is below 0.02 nM.

In the case of `CCc1cc(CCC(=O)N2CCOCC2)c2nc(C)cc(N3CCc4c(cc(Cn5ccnc5)cc4-c4cn(C)nc4C(F)(F)F)C3=O)c2c1` [Example 153, 7-((1H-Imidazol-1-yl)methyl)-2-(6-ethyl-2-methyl-8-(3-morpholino-3-oxopropyl)quinolin-4-yl)-5-(1b-methyl-3-(trifluoromethyl)-1H-pyrazol-4-yl)-3,4-dihydroisoquinolin-1(2H)-one], the GI50 in assay [1] (setting [3]) is 47 nM. Moreover, the inhibitory constant (Ki) in assay [2] came to 0.022 nM.

For the compound `COc1cc2c(N3CCc4c(cc(Cn5ccnc5)cc4-c4cn(C)nc4C(F)(F)F)C3=O)cc(C)cc2nc1C` [Example 155, 7-((1H-Imidazol-1-yl)methyl)-2-(3-methoxy-2,7-dimethylquinolin-5-yl)-5-(1-methyl-3-(trifluoromethyl)-1H-pyrazol-4-yl)-3,4-dihydroisoquinolin-1(2H)-one], the GI50 in assay [1] (setting [3]) was below 20 nM. In assay [2], the Ki worked out at 0.029 nM.

Consider `CCc1cc(COC)c2nc(C)cc(N3CCc4c(cc(Cn5ccnc5)cc4-c4cn(C)nc4C(F)(F)F)C3=O)c2c1` [Example 156, 7-((1H-Imidazol-1-yl)methyl)-2-(6-ethyl-8-(methoxymethyl)-2-methylquinolin-4-yl)-5-(1-methyl-3-(trifluoromethyl)-1H-pyrazol-4-yl)-3,4-dihydroisoquinolin-1(2H)-one], for which, in assay [1] (setting [3]), the GI50 was determined as 28 nM. Further, the Ki in assay [2] worked out at 0.02 nM.

Turning to `COc1cc(C2CCN(C)CC2)c2nc(C)cc(N3CCc4c(cc(Cn5ccnc5)cc4-c4cn(C)nc4C(F)(F)F)C3=O)c2c1` [Example 157, 7-((1H-Imidazol-1-yl)methyl)-2-(6-methoxy-2-methyl-8-(1-methylpiperidin-4-yl)quinolin-4-yl)-5-(1-methyl-3-(trifluoromethyl)-1H-pyrazol-4-yl)-3,4-dihydroisoquinolin-1(2H)-one], the GI50 in assay [1] (setting [3]) was below 20 nM. Further, the inhibition constant (Ki) in assay [2] was below 0.02 nM.

Consider `CCc1cc(C(=O)Nc2ccncc2)c2nccc(N3CCc4c(cc(Cn5ccnc5)cc4-c4cn(C)nc4C(F)(F)F)C3=O)c2c1` [Example 158, 4-(7-((1H-Imidazol-1-yl)methyl)-5-(1-methyl-3-(trifluoromethyl)-1H-pyrazol-4-yl)-1-oxo-3,4-dihydroisoquinolin-2(1H)-yl)-6-ethyl-N-(pyridin-4-yl)quinoline-8-carboxamide], for which the GI50 in assay [1] (setting [3]) was determined as 31 nM. Besides, the Ki in assay [2] is below 0.02 nM.

On to `COc1cc(COC2CCC2)c2nccc(N3CCc4c(cc(Cn5ccnc5)cc4-c4cn(C)nc4C(F)(F)F)C3=O)c2c1` [Example 159, 7-((1H-Imidazol-1-yl)methyl)-2-(8-(cyclobutoxymethyl)-6-methoxyquinolin-4-yl)-5-(1-methyl-3-(trifluoromethyl)-1H-pyrazol-4-yl)-3,4-dihydroisoquinolin-1(2H)-one], for which the GI50 in assay [1] (setting [3]) was found to be 159 nM. Also, the Ki in assay [2] was determined as 0.027 nM.

As for `CCc1cc(C(=O)Nc2ncco2)c2nccc(N3CCc4c(cc(Cn5ccnc5)cc4-c4cn(C)nc4C(F)(F)F)C3=O)c2c1` [Example 160, 4-(7-((1H-Imidazol-1-yl)methyl)-5-(1-methyl-3-(trifluoromethyl)-1H-pyrazol-4-yl)-1-oxo-3,4-dihydroisoquinolin-2(1H)-yl)-6-ethyl-N-(oxazol-2-yl)quinoline-8-carboxamide], the GI50 in assay [1] (setting [3]) is below 20 nM. In assay [2], the inhibition constant (Ki) was below 0.02 nM.

As for `COc1cc(C2CCOCC2)c2nc(C)cc(N3CCc4c(cc(Cn5ccnc5)cc4-c4cn(C)nc4C(F)(F)F)C3=O)c2c1` [Example 165, 7-((1H-Imidazol-1-yl)methy)-2-(6-methoxy-2-methyl-8-(tetrahydro-2H-pyran-4-yl)quinolin-4-yl)-5-(1-methyl-3-(trifluoromethyl)-1H-pyrazol-4-yl)-3,4-dihydroisoquinolin-1(2H)-one], the GI50 in assay [1] (Homo sapiens, MV4-11, 120 h) is 129 nM. Besides, the inhibition constant Ki in assay [2] is 0.042 nM.

With `COc1cc(COC2CC2)c2nccc(N3CCc4c(cc(Cn5ccnc5)cc4-c4cn(C)nc4C(F)(F)F)C3=O)c2c1` [Example 167, 7-((1H-Imidazol-1-yl)methyl)-2-(8-(cyclopropoxymethyl)-6-methoxyquinolin-4-yl)-5-(1-methyl-3-(trifluoromethyl)-1H-pyrazol-4-yl)-3,4-dihydroisoquinolin-1(2H)-one], the GI50 in assay [1] (Homo sapiens, MV4-11, 120 h) was 106 nM. In addition, the inhibitory constant (Ki) in assay [2] turned out to be 0.034 nM.

Take `COc1cc(COC2CCN(C)CC2)c2nccc(N3CCc4c(cc(Cn5ccnc5)cc4-c4cn(C)nc4C(F)(F)F)C3=O)c2c1` [Example 169, 7-((1H-Imidazol-1-yl)methyl)-2-(6-methoxy-8-(((1-methylpiperidin-4-yl)oxy)methyl)quinolin-4-yl)-5-(1-methyl-3-(trifluoromethyl)-1H-pyrazol-4-yl)-3,4-dihydroisoquinolin-1(2H)-one]: the GI50 in assay [1] (setting [3]) was below 20 nM. In assay [2], the Ki was below 0.02 nM.
